Test results reported in PubChem BioAssay (NCI).
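Assay format: 96-well plates, 48-hour exposure. TGI is the concentration that stops growth completely.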

Experiments:
Test in all cases: NCI tumour cell line growth inhibition, 48 h
[1] = tested on: BT-549 breast
[2] = tested on: EKVX NSCLC
[3] = tested on: HCC-2998 colon
[4] = tested on: HCT-116 colon
[5] = tested on: HOP-62 NSCLC
[6] = tested on: MALME-3M melanoma
[7] = tested on: OVCAR-4 ovarian
[8] = tested on: PC-3 prostate
[9] = tested on: RPMI-8226 leukemia
[10] = tested on: SF-295 CNS
[11] = tested on: SK-MEL-28 melanoma
[12] = tested on: UACC-257 melanoma
[13] = tested on: UACC-62 melanoma
[14] = tested on: HL-60(TB) leukemia
[15] = tested on: HS 578T breast
[16] = tested on: UO-31 renal

N#Cc1c(N2CCN(c3ccc([N+](=O)[O-])cc3)CC2)[n+](=O)c2ccccc2n1[O-]
TGI [1]: > 100 µM | TGI [2]: > 100 µM | TGI [3]: > 100 µM | TGI [4]: > 100 µM | TGI [5]: > 100 µM | TGI [6]: > 100 µM | TGI [7]: > 100 µM | TGI [8]: > 100 µM | TGI [9]: > 100 µM | TGI [10]: > 100 µM | TGI [11]: > 100 µM | TGI [12]: > 100 µM | TGI [13]: > 100 µM

COC(=O)C1=NN2c3ccccc3CN([C@@H](C)c3ccccc3)C(=O)[C@@H]2[C@H]1c1ccccc1
TGI [1]: > 100 µM | TGI [2]: > 100 µM | TGI [3]: > 100 µM | TGI [4]: > 100 µM | TGI [14]: > 100 µM | TGI [5]: > 100 µM | TGI [15]: > 100 µM | TGI [6]: > 100 µM | TGI [7]: > 100 µM | TGI [8]: > 100 µM | TGI [10]: > 100 µM | TGI [11]: > 100 µM | TGI [12]: > 100 µM | TGI [13]: > 100 µM | TGI [16]: > 100 µM

O=Nc1c(O)cc(Nc2cccnc2)c2ccccc12
TGI [1]: > 100 µM | TGI [2]: > 100 µM | TGI [3]: 95.4 µM | TGI [4]: > 100 µM | TGI [14]: 5.65 µM | TGI [5]: > 100 µM | TGI [15]: > 100 µM | TGI [7]: > 100 µM | TGI [8]: > 100 µM | TGI [9]: 85 µM | TGI [10]: > 100 µM | TGI [12]: > 100 µM | TGI [13]: 55.6 µM | TGI [16]: > 100 µM

CC1CN=C(Nc2ccc(F)c(Cl)c2)S1 (stereo not drawn)
TGI [1]: > 100 µM | TGI [2]: > 100 µM | TGI [3]: > 100 µM | TGI [4]: > 100 µM | TGI [14]: > 100 µM | TGI [5]: > 100 µM | TGI [15]: > 100 µM | TGI [6]: > 100 µM | TGI [8]: > 100 µM | TGI [9]: > 100 µM | TGI [10]: > 100 µM | TGI [11]: > 100 µM | TGI [12]: > 100 µM | TGI [13]: > 100 µM | TGI [16]: 91.8 µM

CN(CCCn1ccnc1[N+](=O)[O-])CCCn1ccnc1[N+](=O)[O-]
TGI [1]: > 100 µM | TGI [2]: > 100 µM | TGI [4]: > 100 µM | TGI [14]: > 100 µM | TGI [5]: > 100 µM | TGI [15]: > 100 µM | TGI [6]: > 100 µM | TGI [7]: > 100 µM | TGI [8]: > 100 µM | TGI [9]: > 100 µM | TGI [10]: > 100 µM | TGI [11]: > 100 µM | TGI [12]: > 100 µM | TGI [13]: > 100 µM | TGI [16]: > 100 µM

CCCCOC(=O)c1cc(C(=CCC[C@H]2CC[C@@]3(C)[C@@H](CC[C@@H]4[C@@H]3CC[C@]3(C)[C@@H](C(C)CCCC(C)C)CC[C@@H]43)C2)c2cc(Cl)c(O)c(C(=O)OCCCC)c2)cc(Cl)c1O (stereo partly drawn)
TGI [1]: > 50 µM | TGI [2]: > 50 µM | TGI [3]: > 50 µM | TGI [4]: > 50 µM | TGI [14]: > 50 µM | TGI [5]: > 50 µM | TGI [15]: > 50 µM | TGI [7]: > 50 µM | TGI [8]: > 50 µM | TGI [9]: > 50 µM | TGI [13]: > 50 µM

CC[C@@]1(CCC(=O)NCCc2c[nH]c3ccccc23)CCC(=O)N2CCc3c([nH]c4ccccc34)[C@H]21
TGI [1]: 19.2 µM | TGI [2]: > 100 µM | TGI [3]: 46.7 µM | TGI [4]: > 100 µM | TGI [5]: > 100 µM | TGI [6]: 25.4 µM | TGI [7]: > 100 µM | TGI [8]: > 100 µM | TGI [9]: 9.59 µM | TGI [10]: 60.6 µM | TGI [11]: > 100 µM | TGI [12]: > 100 µM | TGI [13]: 65.3 µM | TGI [16]: > 100 µM

COC(=O)C1=C(CCC[C@H](C)O[Si](C)(C)C(C)(C)C)NC(=O)N2[C@@H](CCO)CC[C@H]12
TGI [1]: 28.4 µM | TGI [2]: 26.1 µM | TGI [4]: 20 µM | TGI [5]: 27.7 µM | TGI [6]: 25.9 µM | TGI [7]: 38.2 µM | TGI [9]: 53.6 µM | TGI [10]: 25.1 µM | TGI [11]: 35.5 µM | TGI [12]: 28.9 µM | TGI [16]: 29.7 µM
